Common to all, as to assay type: functional
Test [1] concerns Staphylococcus aureus. In words: Antibacterial activity against methicillin-resistant Staphylococcus aureus incubated for 20 hrs by microbroth dilution method.
Test [2] relates to Escherichia coli. In words: Antibacterial activity against Escherichia coli incubated for 20 hrs by microbroth dilution method.
For test [3], the system named is Bacillus subtilis. In words: Antibacterial activity against Bacillus subtilis incubated for 20 hrs by microbroth dilution method.
In test [4] the test system is Staphylococcus aureus. Kind of test: Antibacterial activity against Staphylococcus aureus incubated for 20 hrs by microbroth dilution method.

Molecules are shown by their SMILES. Values after ≈ are worked out from the molar mass of the structure shown.

For `Fc1ccc2c(c1)[nH]c1cc(F)cc(F)c12`, the MIC in test [1] amounted to 12.5 µg/mL (≈ 56.5 µM); in test [2] it was 25 µg/mL (≈ 113 µM); in test [3], 3.12 µg/mL (≈ 14.1 µM); in test [4], 1.56 µg/mL (≈ 7.05 µM).

Regarding `CCc1ccc2[nH]c3c(C)ccc(F)c3c2c1`, the MIC in test [1], in test [3] and in test [4] was 3.12 µg/mL (≈ 13.7 µM) throughout.

Consider `Fc1cc(F)c2c(c1)[nH]c1ccccc12`, for which the MIC in test [1] is 12.5 µg/mL (≈ 61.5 µM); in test [2], 25 µg/mL (≈ 123 µM); in test [3], 6.25 µg/mL (≈ 30.8 µM); in test [4], 25 µg/mL (≈ 123 µM).

Consider `Fc1ccc2[nH]c3c(F)cc(F)c(F)c3c2c1`, for which the MIC is 6.25 µg/mL (≈ 26.1 µM) in test [1], 3.12 µg/mL (≈ 13.1 µM) in test [3] and 1.56 µg/mL (≈ 6.52 µM) in test [4].

On to `Fc1cc(F)c2[nH]c3cc(C(F)(F)F)ccc3c2c1F`, for which the MIC in test [1] came to 3.12 µg/mL (≈ 10.8 µM); in test [3], 0.78 µg/mL (≈ 2.7 µM); in test [4] it was 0.78 µg/mL (≈ 2.7 µM).

As for `Cc1ccc(F)c2c1[nH]c1ccccc12`, the MIC in test [1] was found to be 12.5 µg/mL (≈ 62.7 µM); in test [3], 6.25 µg/mL (≈ 31.4 µM); in test [4], 50 µg/mL (≈ 251 µM).

With `CCc1ccc2[nH]c3cc(F)cc(F)c3c2c1`, the figures for the MIC in test [1], in test [3] and in test [4] were 3.12 µg/mL (≈ 13.5 µM), 3.12 µg/mL (≈ 13.5 µM) and 1.56 µg/mL (≈ 6.75 µM), respectively.

Consider `Fc1ccc2c(c1)[nH]c1c(F)cc(F)c(F)c12`, for which the MIC in test [1] came to 6.25 µg/mL (≈ 26.1 µM); in test [3], 3.12 µg/mL (≈ 13.1 µM); in test [4], 3.12 µg/mL (≈ 13.1 µM).

Consider `CCc1ccc2[nH]c3c(F)cc(F)c(F)c3c2c1`, for which the MIC in test [1], in test [3] and in test [4] was 3.12 µg/mL (≈ 12.5 µM) throughout.

Turning to `Cc1ccc2[nH]c3cc(F)cc(F)c3c2c1`, the MIC in test [1] stood at 3.12 µg/mL (≈ 14.4 µM); in test [3], 3.12 µg/mL (≈ 14.4 µM); in test [4], 100 µg/mL (≈ 460 µM).

Regarding `Cc1ccc2c(c1)[nH]c1c(F)cc(F)c(F)c12`, the MIC in test [1] worked out at 6.25 µg/mL (≈ 26.6 µM); in test [3], 3.12 µg/mL (≈ 13.3 µM); in test [4], 6.25 µg/mL (≈ 26.6 µM).

For the molecule `Cc1ccc2[nH]c3c(C)ccc(F)c3c2c1`, the MIC in test [1], in test [3] and in test [4] was 6.25 µg/mL (≈ 29.3 µM) in each case.

On to `Fc1cc(F)c2c(c1)[nH]c1ccc(F)cc12`, for which the MIC came to 3.12 µg/mL (≈ 14.1 µM) in test [1], 12.5 µg/mL (≈ 56.5 µM) in test [2], 3.12 µg/mL (≈ 14.1 µM) in test [3] and 1.56 µg/mL (≈ 7.05 µM) in test [4].

In the case of `Cc1ccc(F)c2c1[nH]c1cc(C(F)(F)F)ccc12`, the MIC in test [1] came out at 3.12 µg/mL (≈ 11.7 µM); in test [3] it was 3.12 µg/mL (≈ 11.7 µM); in test [4], 1.56 µg/mL (≈ 5.84 µM).

For `Cc1ccc2[nH]c3c(F)cc(F)c(F)c3c2c1`, the MIC was 6.25 µg/mL (≈ 26.6 µM) in test [1], 3.12 µg/mL (≈ 13.3 µM) in test [3] and 6.25 µg/mL (≈ 26.6 µM) in test [4].

Regarding `Cc1ccc(F)c2c1[nH]c1cc(F)ccc12`, the MIC in test [1] amounted to 6.26 µg/mL (≈ 28.8 µM); in test [3], 6.25 µg/mL (≈ 28.8 µM); in test [4] it was 50 µg/mL (≈ 230 µM).

Turning to `Fc1cc(F)c2c(c1)[nH]c1cc(C(F)(F)F)ccc12`, the MIC came to 3.12 µg/mL (≈ 11.5 µM) in test [1], 0.78 µg/mL (≈ 2.88 µM) in test [3] and 0.39 µg/mL (≈ 1.44 µM) in test [4].

As to `Cc1ccc2c(c1)[nH]c1cc(F)cc(F)c12`, the MIC in test [1], in test [3] and in test [4] was 3.12 µg/mL (≈ 14.4 µM) in each case.

As for `Fc1cc(F)c2[nH]c3ccccc3c2c1F`, the MIC in test [1] was found to be 12.5 µg/mL (≈ 56.5 µM); in test [3], 6.25 µg/mL (≈ 28.3 µM); in test [4] it was 6.25 µg/mL (≈ 28.3 µM).

In the case of `CC1(C)S[C@@H]2[C@H](NC(=O)[C@H](N)c3ccccc3)C(=O)N2[C@H]1C(=O)O` [AMPICILLIN], the minimum inhibitory concentration (MIC) in test [2] is 3.12 µg/mL (≈ 8.94 µM); in test [3], < 0.2 µg/mL; in test [4], 0.2 µg/mL (≈ 0.572 µM).

For the molecule `C[C@@H](O)[C@H]1C(=O)N2C(C(=O)O)=C(S[C@@H]3CN[C@H](C(=O)N(C)C)C3)[C@H](C)[C@H]12` [MEROPENEM], the MIC in test [1] came out at 0.78 µg/mL (≈ 2.03 µM); in test [2] it was 0.05 µg/mL (≈ 0.13 µM); in test [3], 3.12 µg/mL (≈ 8.15 µM); in test [4], 0.78 µg/mL (≈ 2.03 µM).

Consider `CN[C@@H]1[C@H](O[C@H]2[C@H](O[C@H]3[C@H](O)[C@@H](O)[C@H](N=C(N)N)[C@@H](O)[C@@H]3N=C(N)N)O[C@@H](C)[C@]2(O)C=O)O[C@@H](CO)[C@H](O)[C@H]1O` [STREPTOMYCIN], for which the MIC in test [1] was 3.12 µg/mL (≈ 5.37 µM); in test [2] it was 3.12 µg/mL (≈ 5.37 µM); in test [3] it was 3.21 µg/mL (≈ 5.53 µM); in test [4], 3.12 µg/mL (≈ 5.37 µM).

The values above are taken from ChEMBL document CHEMBL3763069, “Synthesis of fluorinated carbazoles via C-H arylation catalyzed by Pd/Cu bimetal system and their antibacterial activities” (2016).
